Experimental data from patent US11725000B2, “Apoptosis inhibitors” (National Institute of Biological Sciences, Beijing, priority 2017, dated 2023).
Where a SMILES comes first, the peptide text is derived from it. The star is where a group is joined. Cbz = O=C(OCc1ccccc1)*; CH2F = FC*

Columns and labels:
Type in all cases: cell-based
U2OS_Bim cells [1] = experiment: Apoptosis inhibition assay (Bim-induced apoptosis, cell viability by ATP level); details: U2OS_Bim cells
Method in brief: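 Apoptosis was triggered by doxycycline (0.1 μg/mL) induction of Bim, one hour after compound addition to U2OS_Bim cells. Survival was measured after 24 h from cellular ATP (CellTiter-Glo), relative to DMSO, with zVAD at 20 μM as rescue control. Data are duplicate means, some estimated from preliminary results.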

U2OS_Bim cells [2] = experiment: Irreversibility binding assay (cellular wash/no wash assay)
Excerpt: It has been reported that sulfone can serve as a good leaving group in SN2 substitution reactions when linked to electron withdrawing groups. Active compounds in our SAR study all contained a —CF3 substituted pyrimidine ring linked to the sulfone group. Replacement of CF3 at the R2 position with groups with less powerful electron-withdrawing properties totally abolished the apoptosis inhibition activity. […] To test the reactivity of representative TC09 compounds, we performed model reactions using different nucleophilic reagent (cysteine, lysine, and glutathione) with compounds 1, 6, and 27. […] To further explore the binding mode of the active compounds in a cellular context, we next performed a cellular wash/no wash assay for determining the reversibility of compound-target interactions. Following compound incubation, one subset of cells was washed several times to eliminate the free test compounds, and the other subset was not washed. Apoptosis was induced and the viability of cells was then measured and EC50 under wash conditions was compared with no wash conditions.[9]
U2OS_Bim cells were plated at a density of 3000 cells per well in 96-well plates. 24 hrs later, duplicate sets of cells were treated with experimental compounds for 3 hrs. One subset of these cells were treated with 0.1 μg/mL DOX to trigger apoptosis. The remaining subset of cells was washed free of the experimental compound using warmed medium, 3 times, before being treated with 0.1 μg/mL DOX. 24 hours after DOX addition, cell viability was determined by measuring the ATP levels using a CellTiter-Glo kit. Cell survival rate was calculated. zVAD (20 μM) was used as a positive control.

U2OS_Bim cells [3] = experiment: Immunostaining of cytochrome c (mitochondrial cytochrome c release); details: immunofluorescence after induced Bim overexpression
Experimental: U2OS_Bim cells were plated in Lab-Tek eight-chambered slides (Thermo Scientific). 24 hrs later, cells were treated with experimental compounds for one hour. Cell were washed by PBS for 10 min and fixed with 2% PFA for 30 min at room temperature. Following three additional washes in PBS, cells were incubated in PBS containing 0.1% Triton X-100 for 10 min. Cytochrome c antibody (diluted in 5% BSA in PBST) was incubated with the cells at 4° C. overnight. Cells were then washed three times with PBST and incubated with secondary antibody at room temperature for 1 h. Following three additional washes in PBS, the slides were covered and sealed and then examined with a Zeiss LSM 510 confocal microscope.

U2OS_Bim cells [4] = experiment: TMRM staining (mitochondrial membrane potential); details: DOX induction of Bim
Experimental: U2OS_Bim cells were plated at a density of 3000 cells per well in 96-well optical plates. 24 hrs later, cells were treated with experimental compounds for one hour. The cells were then treated with 0.1 μg/mL DOX to trigger apoptosis. 4 hrs later, 50 nM TMRM was added to each well and incubated for 30 min. Cells were washed 3 times with warmed PBS buffer and examined with a Zeiss LSM 510 confocal microscope.

U2OS_Bim cells [5] = experiment: Long-term cell survival under constant apoptotic insult (DOX)
Experimental: We therefore tested the long-term impact of TC09 compounds on cells experiencing constant apoptotic insult. […] Remarkably, in the presence of tested TC09 compounds, the cells continued to proliferate, similar to cells grown under normal conditions.
The U2OS_Bim cells were all killed when DOX was added, even in the presence of z-VAD-FMK.

[6] = no wash, 3 hrs compound incubation before DOX, read-out: EC50 (no wash)

EC50 (U2OS_Bim cells [1]; DOX-induced Bim overexpression, viability 24 h after DOX, read-out: EC50) | EC50 (U2OS_Bim cells [1]; means of duplicates, numbering of Tables 4a/4b, read-out: EC50) | EC50 (U2OS_Bim cells [2]; cells washed free of compound 3 times before DOX, read-out: EC50 (wash assay)) | Structure (SMILES) | EC50 (U2OS_Bim cells [1]; read-out: EC50 in increasing cell survival rates following apoptosis induced by Bim overexpression) | EC50 (U2OS_Bim cells [2]; [6]) | mitochondrial cytochrome c release (U2OS_Bim cells [3]) | mitochondria membrane potential and TMRM enrichment after apoptosis induction (U2OS_Bim cells [4]) | cell colonies after 1 week culture with DOX (crystal violet) (U2OS_Bim cells [5]; 1 week) | cell survival/proliferation over days after addition of DOX (U2OS_Bim cells [5]; constant apoptotic insult, up to third day)
4.01 µM | 1 to 10 µM | 3.9 µM | Cc1ccc(O)c(NC(=O)CCCS(=O)(=O)c2nc(-c3cccs3)cc(C(F)(F)F)n2)c1 [Hit] | 4 µM | 4.01 µM | could prevent cytochrome c release | – | – | –
– | – | – | COC(=O)C[C@H](NC(=O)[C@H](C)NC(=O)[C@@H](NC(=O)OCc1ccccc1)C(C)C)C(=O)CF [zVAD] (Cbz-Val-Ala-Asp(OMe)-CH2F) | – | 69.2 µM | – | cannot be achieved | all killed | clearly delayed death, most of the cells had died by the third day
